Where two headings read alike, the source gives them in different places.

The values below come from patent US20240247080A1, “GLP1/GIP/NPY2 RECEPTOR TRIPLE AGONISTS” (Boehringer Ingelheim International GmbH, priority 2022, published 2024).

Common to all, as to type: cell-based
The target in one experiment is T1, hNPY2R (Homo sapiens, UniProt P49146).
T1 construct: expressed in transfected cells; host or cells: HEK-293 cells carrying a CRE-luciferase reporter gene
T1 sequence (P49146 1-381): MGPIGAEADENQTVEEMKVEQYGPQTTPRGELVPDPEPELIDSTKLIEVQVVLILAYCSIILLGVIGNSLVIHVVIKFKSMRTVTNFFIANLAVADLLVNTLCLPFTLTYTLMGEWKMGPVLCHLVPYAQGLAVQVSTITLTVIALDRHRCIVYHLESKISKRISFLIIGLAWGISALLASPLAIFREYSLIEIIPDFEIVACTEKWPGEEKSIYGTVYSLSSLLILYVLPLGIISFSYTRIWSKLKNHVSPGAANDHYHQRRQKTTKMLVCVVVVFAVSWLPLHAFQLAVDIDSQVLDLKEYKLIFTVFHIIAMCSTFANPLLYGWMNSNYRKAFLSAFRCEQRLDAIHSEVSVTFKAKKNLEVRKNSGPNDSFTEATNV
The experiment in a line: hNPY2R CreLuc reporter gene assay in 0.5% and 100% plasma. The essentials:
(§1)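 HEK-293 cells co-expressing GLP-1 or NPY2 receptor and CHO cells expressing GIP receptor, each carrying a CRE-driven luciferase reporter, were stimulated with peptides for 4 hours at 37 °C. Luminescence was read after Bright-Glo addition. EC50 came from 8-point, four-decade curves fitted by variable-slope non-linear regression.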
For orientation: Reporter assays use an easily measured gene product as a stand-in for the process of interest.

Another experiment deals with T2, hGLP1R (Homo sapiens, UniProt P43220).
T2 construct: expressed in transfected cells; host or cells: HEK-293 cells carrying a CRE-luciferase reporter gene
Nature of the experiment: hGLP1R CreLuc reporter gene assay in 0.5% and 100% plasma. In a few lines: as §1

A further experiment concerns the target T3, hGIPR (Homo sapiens, UniProt P48546).
T3 construct: expressed in transfected cells; host or cells: CHO cells carrying a CRE-luciferase reporter gene
T3 sequence (P48546 22-466): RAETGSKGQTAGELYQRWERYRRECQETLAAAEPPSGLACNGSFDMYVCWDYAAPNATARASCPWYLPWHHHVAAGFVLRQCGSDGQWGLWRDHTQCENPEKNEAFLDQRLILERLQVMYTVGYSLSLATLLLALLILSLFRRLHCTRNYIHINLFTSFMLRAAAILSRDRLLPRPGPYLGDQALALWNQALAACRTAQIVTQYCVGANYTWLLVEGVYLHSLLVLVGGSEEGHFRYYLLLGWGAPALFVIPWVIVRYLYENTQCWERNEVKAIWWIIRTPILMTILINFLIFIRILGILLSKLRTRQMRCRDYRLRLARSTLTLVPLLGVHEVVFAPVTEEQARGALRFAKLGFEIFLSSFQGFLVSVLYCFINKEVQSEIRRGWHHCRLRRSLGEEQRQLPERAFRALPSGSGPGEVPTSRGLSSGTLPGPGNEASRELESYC
The experiment in a line: hGIPR CreLuc reporter gene assay in 0.5% and 100% plasma. In a few lines: as §1

T2 sequence (P43220 24-463): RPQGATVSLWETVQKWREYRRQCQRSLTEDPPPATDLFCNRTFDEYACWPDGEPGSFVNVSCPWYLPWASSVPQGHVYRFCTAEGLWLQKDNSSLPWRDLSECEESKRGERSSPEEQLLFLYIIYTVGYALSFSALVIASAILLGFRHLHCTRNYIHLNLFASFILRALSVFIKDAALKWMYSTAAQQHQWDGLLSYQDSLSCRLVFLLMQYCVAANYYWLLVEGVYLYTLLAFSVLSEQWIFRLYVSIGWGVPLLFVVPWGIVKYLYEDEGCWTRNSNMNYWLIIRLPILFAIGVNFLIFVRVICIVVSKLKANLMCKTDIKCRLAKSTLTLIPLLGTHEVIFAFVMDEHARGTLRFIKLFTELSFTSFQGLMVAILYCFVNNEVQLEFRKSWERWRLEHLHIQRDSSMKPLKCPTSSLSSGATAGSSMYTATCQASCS

`CC[C@H](C)[C@H](NC(=O)[C@H](CC(C)C)NC(=O)[C@H](Cc1c[nH]c2ccccc12)NC(=O)[C@H](CCC(=O)O)NC(=O)[C@@H](NC(=O)[C@H](Cc1ccccc1)NC(=O)[C@H](C)NC(=O)C(C)(C)NC(=O)[C@H](CCC(N)=O)NC(=O)[C@H](C)NC(=O)[C@H](CCC(N)=O)NC(=O)[C@H](CCCCN)NC(=O)[C@H](CCC(=O)O)NC(=O)[C@H](CC(C)C)NC(=O)C(C)(C)NC(=O)[C@@H](NC(=O)[C@H](CO)NC(=O)[C@H](Cc1ccc(O)cc1)NC(=O)[C@H](CC(=O)O)NC(=O)[C@H](CO)NC(=O)[C@@H](NC(=O)[C@H](Cc1ccccc1)NC(=O)[C@@H](NC(=O)CNC(=O)[C@H](CCC(=O)O)NC(=O)C(C)(C)NC(=O)[C@@H](N)Cc1ccc(O)cc1)[C@@H](C)O)[C@@H](C)O)[C@@H](C)CC)C(C)C)C(=O)N[C@@H](CCCCNC(=O)[C@@H](N)CCCCNC(=O)CC[C@H](NC(=O)CC[C@H](NC(=O)CC[C@H](NC(=O)CC[C@H](NC(=O)CC[C@H](NC(=O)CC[C@H](NC(=O)CCCCCCCCCCCCCCCCCCC(=O)O)C(=O)O)C(=O)O)C(=O)O)C(=O)O)C(=O)O)C(=O)O)C(=O)NCC(=O)NCC(=O)N1CCC[C@H]1C(=O)N[C@@H](CO)C(=O)N[C@@H](CO)C(=O)NCC(=O)N[C@@H](C)C(=O)N[C@@H](CO)C(=O)N[C@@H](CC(C)C)C(=O)N[C@@H](CCCNC(=N)N)C(=O)N[C@@H](Cc1c[nH]cn1)C(=O)N[C@@H](Cc1ccc(O)cc1)C(=O)N[C@@H](CC(C)C)C(=O)N[C@@H](CC(N)=O)C(=O)N[C@@H](Cc1c[nH]c2ccccc12)C(=O)N[C@@H](CC(C)C)C(=O)N[C@H](C(=O)N[C@@H](CCCNC(=N)N)C(=O)N[C@@H](CCC(N)=O)C(=O)N[C@@H](CCCNC(=N)N)C(=O)N[C@@H](Cc1ccc(O)cc1)C(N)=O)[C@@H](C)O` [Compound 86, Y-Aib-E-G-T-F-T-S-D-Y-S-I-Aib-L-E-K-Q-A-Q-Aib-A-F-V-E-W-L-I-K(1,3)-GGPSSGASLRHYLNWLTRQRY-NH2.C20DA-gGlu-gGlu-gGlu-gGlu-gGlu-gGlu-eLys(1,2)]: the EC50 at hNPY2R (CreLuc reporter gene assay, 100% human plasma, read-out: hNPY2R 100% hP) worked out at 53.1 nM; at hGLP1R (CreLuc reporter gene assay, 0.5% human plasma, read-out: hGLP1R 0.5% hP) it was 0.25 nM; on hGIPR (CreLuc reporter gene assay, 0.5% human plasma, read-out: hGIPR 0.5% hP), 0.48 nM; on hGIPR (CreLuc reporter gene assay, 100% human plasma, read-out: hGIPR 100% hP), 1.61 nM.

For `CC[C@H](C)[C@H](NC(=O)[C@H](CC(C)C)NC(=O)[C@H](Cc1c[nH]c2ccccc12)NC(=O)[C@H](CCC(=O)O)NC(=O)[C@@H](NC(=O)[C@H](Cc1ccccc1)NC(=O)[C@H](C)NC(=O)C(C)(C)NC(=O)[C@H](CCC(N)=O)NC(=O)[C@H](C)NC(=O)[C@H](CCC(N)=O)NC(=O)[C@H](CCCCN)NC(=O)[C@H](CCC(=O)O)NC(=O)[C@H](CC(C)C)NC(=O)C(C)(C)NC(=O)[C@@H](NC(=O)[C@H](CO)NC(=O)[C@H](Cc1ccc(O)cc1)NC(=O)[C@H](CC(=O)O)NC(=O)[C@H](CO)NC(=O)[C@@H](NC(=O)[C@H](Cc1ccccc1)NC(=O)[C@@H](NC(=O)CNC(=O)[C@H](CC(=O)O)NC(=O)C(C)(C)NC(=O)[C@@H](N)Cc1ccc(O)cc1)[C@@H](C)O)[C@@H](C)O)[C@@H](C)CC)C(C)C)C(=O)N[C@@H](CCCCNC(=O)[C@@H](N)CCCCNC(=O)CC[C@H](NC(=O)CC[C@H](NC(=O)CC[C@H](NC(=O)CC[C@H](NC(=O)CC[C@H](NC(=O)CC[C@H](NC(=O)CCCCCCCCCCCCCCCCCCC(=O)O)C(=O)O)C(=O)O)C(=O)O)C(=O)O)C(=O)O)C(=O)O)C(=O)NCC(=O)NCC(=O)N1CCC[C@H]1C(=O)N[C@@H](CO)C(=O)N[C@@H](CO)C(=O)NCC(=O)N[C@@H](C)C(=O)N[C@@H](CO)C(=O)N[C@@H](CC(C)C)C(=O)N[C@@H](CCCNC(=N)N)C(=O)N[C@@H](Cc1c[nH]cn1)C(=O)N[C@@H](Cc1ccc(O)cc1)C(=O)N[C@@H](Cc1ccc(O)cc1)C(=O)N[C@@H](CC(N)=O)C(=O)N[C@@H](Cc1c[nH]c2ccccc12)C(=O)N[C@@H](CC(C)C)C(=O)N[C@H](C(=O)N[C@@H](CCCNC(=N)N)C(=O)N[C@@H](CCC(N)=O)C(=O)N[C@@H](CCCNC(=N)N)C(=O)N[C@@H](Cc1ccc(O)cc1)C(N)=O)[C@@H](C)O` [Compound 87, Y-Aib-D-G-T-F-T-S-D-Y-S-I-Aib-L-E-K-Q-A-Q-Aib-A-F-V-E-W-L-I-K(1,3)-GGPSSGASLRHYYNWLTRQRY-NH2.C20DA-gGlu-gGlu-gGlu-gGlu-gGlu-gGlu-eLys(1,2)], the EC50 on hNPY2R (hNPY2R 0.5% hP) amounted to 20.7 nM; on hGLP1R (hGLP1R 0.5% hP), 0.08 nM; at hGLP1R (hGLP1R 100% hP) it was 2 nM; on hGIPR (hGIPR 0.5% hP), 0.58 nM.

On to `CC[C@H](C)[C@H](NC(=O)[C@H](CC(C)C)NC(=O)[C@H](Cc1c[nH]c2ccccc12)NC(=O)[C@H](CCC(=O)O)NC(=O)[C@@H](NC(=O)[C@H](Cc1ccccc1)NC(=O)[C@H](C)NC(=O)C(C)(C)NC(=O)[C@H](CCC(N)=O)NC(=O)[C@H](C)NC(=O)[C@H](CCC(N)=O)NC(=O)[C@H](CCCCN)NC(=O)[C@H](CCC(=O)O)NC(=O)[C@H](CC(C)C)NC(=O)C(C)(C)NC(=O)[C@@H](NC(=O)[C@H](CO)NC(=O)[C@H](Cc1ccc(O)cc1)NC(=O)[C@H](CC(=O)O)NC(=O)[C@H](CO)NC(=O)[C@@H](NC(=O)[C@H](Cc1ccccc1)NC(=O)[C@@H](NC(=O)CNC(=O)[C@H](CCC(=O)O)NC(=O)C(C)(C)NC(=O)[C@@H](N)Cc1ccc(O)cc1)[C@@H](C)O)[C@@H](C)O)[C@@H](C)CC)C(C)C)C(=O)N[C@@H](CCCCNC(=O)[C@@H](N)CCCCNC(=O)CC[C@H](NC(=O)CC[C@H](NC(=O)CC[C@H](NC(=O)CC[C@H](NC(=O)CC[C@H](NC(=O)CC[C@H](NC(=O)CCCCCCCCCCCCCCCCCCC(=O)O)C(=O)O)C(=O)O)C(=O)O)C(=O)O)C(=O)O)C(=O)O)C(=O)NCC(=O)NCC(=O)N1CCC[C@H]1C(=O)N[C@@H](CO)C(=O)N[C@@H](CO)C(=O)NCC(=O)N[C@@H](C)C(=O)N[C@@H](CO)C(=O)N[C@H](C(=O)N[C@@H](CCCNC(=N)N)C(=O)N[C@@H](Cc1c[nH]cn1)C(=O)N[C@@H](Cc1ccc(O)cc1)C(=O)N[C@@H](Cc1ccc(O)cc1)C(=O)N[C@@H](CC(N)=O)C(=O)N[C@@H](Cc1c[nH]c2ccccc12)C(=O)N[C@@H](CC(C)C)C(=O)N[C@H](C(=O)N[C@@H](CCCNC(=N)N)C(=O)N[C@@H](CCC(N)=O)C(=O)N[C@@H](CCCNC(=N)N)C(=O)N[C@@H](Cc1ccc(O)cc1)C(N)=O)[C@@H](C)O)C(C)(C)C` [Compound 103, Y-Aib-E-G-T-F-T-S-D-Y-S-I-Aib-L-E-K-Q-A-Q-Aib-A-F-V-E-W-L-I-K(1,3)-G-G-P-S-S-G-A-S-Tle-R-H-Y-Y-N-W-L-T-R-Q-R-Y-NH2.C20DA-gGlu-gGlu-gGlu-gGlu-gGlu-gGlu-eLys(1,2)], for which the EC50 on hNPY2R (hNPY2R 100% hP, CreLuc reporter gene assay, 100% human plasma) amounted to 50.7 nM; at hGLP1R (hGLP1R 0.5% hP, CreLuc reporter gene assay, 0.5% human plasma), 0.13 nM; at hGIPR (hGIPR 0.5% hP, CreLuc reporter gene assay, 0.5% human plasma), 0.26 nM.
